Data taken from patent publication US9796710B2, “Dihydropyrrolopyridine inhibitors of ROR-gamma” (Vitae Pharmaceuticals, Inc., priority 2014, dated 2017).
pIC50: −log10 of the molar value. Like-named read-outs stand apart in the source and are kept apart here.

What was measured:
[1] = target: recombinant RORγ Ligand Binding Domain (LBD) protein (Homo sapiens (Human), UniProt P51449); experiment: Radio-Ligand RORγ Binding Assay (Assay 1); conditions: read-out: RORγ Binding Ki Range* (nM) (Assay 1)
Sequence of recombinant RORγ Ligand Binding Domain (LBD) protein (P51449 269-508): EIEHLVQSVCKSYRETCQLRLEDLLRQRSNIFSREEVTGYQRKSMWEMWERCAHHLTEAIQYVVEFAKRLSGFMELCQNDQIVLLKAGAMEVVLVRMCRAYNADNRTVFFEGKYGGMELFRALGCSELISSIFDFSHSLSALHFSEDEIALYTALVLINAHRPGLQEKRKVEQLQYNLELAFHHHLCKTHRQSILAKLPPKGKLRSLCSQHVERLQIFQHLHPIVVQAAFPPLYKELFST
Experimental: Radio-Ligand ROR ? Binding Assay (Assay 1)
The plate was shaken at 700 rpm for 20 min and incubated for 10 min at rt, after which 40 μL of poly-Lys YSi SPA beads (PerkinElmer, Cat. # RPNQ0010) were added to achieve 50 μg of the beads per well. The plate was incubated on an orbital shaker for 20 min and then for 10 min without agitation at rt. SPA signal for tritium beta radiation was registered on PerkinElmer Microbeta plate reader. […] The percent inhibition vs. concentration data were fit into a four-parameter model, and IC50 values were calculated from the fit as the concentrations corresponding to the inflection points on the dose-response curves.

[2] = target: full-length RORγt in Jurkat cells (Homo sapiens (Human), UniProt P51449)
Sequence of full-length RORγt in Jurkat cells (P51449 other isoform, or with tags, fused parts or gaps): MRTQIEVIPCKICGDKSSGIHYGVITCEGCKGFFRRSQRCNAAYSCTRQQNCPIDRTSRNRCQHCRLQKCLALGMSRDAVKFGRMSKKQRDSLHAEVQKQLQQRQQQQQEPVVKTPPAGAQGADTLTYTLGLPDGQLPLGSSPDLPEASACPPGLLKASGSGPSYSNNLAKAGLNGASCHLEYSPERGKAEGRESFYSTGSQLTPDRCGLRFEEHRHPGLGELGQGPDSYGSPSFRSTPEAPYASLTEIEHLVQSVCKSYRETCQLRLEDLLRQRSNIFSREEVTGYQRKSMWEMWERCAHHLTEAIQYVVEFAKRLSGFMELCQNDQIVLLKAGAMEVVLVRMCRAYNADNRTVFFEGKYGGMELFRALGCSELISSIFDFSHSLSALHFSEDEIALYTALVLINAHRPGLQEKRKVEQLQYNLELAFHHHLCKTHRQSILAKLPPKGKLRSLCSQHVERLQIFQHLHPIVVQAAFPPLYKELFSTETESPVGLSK
Experimental: ROR ? t 5×RORE Assay in Jurkat Cells (Assay 2)
Compounds of the present invention were tested for ROR ? inverse agonist activity in a cell-based, transcriptional activity assay. […] Luciferase activity in the conditioned supernatants was determined with NanoGlo® assay reagents (Promega, Cat.# N1130).

[3] = target: hERG potassium ion channel (Homo sapiens (Human), UniProt Q12809); experiment: hERG Assay (Assay 4); type: cell-based; conditions: HEK293 cells stably transfected with hERG cDNA, pH 7.4, Compound at 3 μM, patch clamp, HEK 293 cells
Sequence of hERG potassium ion channel (Q12809 whole entry): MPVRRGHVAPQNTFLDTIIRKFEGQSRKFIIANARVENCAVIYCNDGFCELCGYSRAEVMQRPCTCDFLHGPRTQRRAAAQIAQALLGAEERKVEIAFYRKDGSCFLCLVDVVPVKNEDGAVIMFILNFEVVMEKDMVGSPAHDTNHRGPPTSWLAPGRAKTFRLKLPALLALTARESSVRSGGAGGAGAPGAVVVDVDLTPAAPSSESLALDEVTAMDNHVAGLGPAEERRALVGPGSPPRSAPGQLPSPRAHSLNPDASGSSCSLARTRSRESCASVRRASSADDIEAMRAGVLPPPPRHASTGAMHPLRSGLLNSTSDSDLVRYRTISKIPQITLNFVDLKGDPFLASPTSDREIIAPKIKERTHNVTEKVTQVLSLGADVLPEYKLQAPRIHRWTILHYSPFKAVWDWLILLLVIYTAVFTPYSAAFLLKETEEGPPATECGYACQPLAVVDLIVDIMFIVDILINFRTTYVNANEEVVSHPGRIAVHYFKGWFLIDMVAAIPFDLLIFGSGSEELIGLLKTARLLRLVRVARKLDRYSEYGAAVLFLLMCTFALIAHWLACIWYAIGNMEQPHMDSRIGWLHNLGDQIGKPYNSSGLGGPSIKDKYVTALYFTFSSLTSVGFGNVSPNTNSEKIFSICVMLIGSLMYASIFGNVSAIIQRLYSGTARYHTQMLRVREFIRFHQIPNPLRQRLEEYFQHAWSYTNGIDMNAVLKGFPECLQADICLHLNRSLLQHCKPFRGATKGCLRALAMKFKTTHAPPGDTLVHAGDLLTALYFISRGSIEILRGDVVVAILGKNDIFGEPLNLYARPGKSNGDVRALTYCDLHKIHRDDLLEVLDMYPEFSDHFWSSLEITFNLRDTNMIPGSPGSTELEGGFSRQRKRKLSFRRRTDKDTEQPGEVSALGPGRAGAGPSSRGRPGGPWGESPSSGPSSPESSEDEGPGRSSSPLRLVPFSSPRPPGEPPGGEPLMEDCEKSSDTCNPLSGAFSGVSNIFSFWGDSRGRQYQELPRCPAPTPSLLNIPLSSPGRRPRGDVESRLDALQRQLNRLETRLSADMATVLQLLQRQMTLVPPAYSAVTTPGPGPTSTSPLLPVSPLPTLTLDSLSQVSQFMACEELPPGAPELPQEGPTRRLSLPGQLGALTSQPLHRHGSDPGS
Experimental: Compounds of the invention were tested in vitro against the hERG (human ether-a-go-go-related gene) potassium ion channel (a surrogate for IKr, the rapidly activating delayed rectifier cardiac potassium ion channel).
The buffer was HEPES-buffered physiological saline (HB-PS) solution composed of: 137 mM NaCl, 4.0 mM KCl, 1.8 mM CaCl2, 1 mM MgCl2, 10 mM HEPES, 10 mM glucose, pH adjusted to 7.4 with NaOH, and 0.3% DMSO. Chemicals used in solution preparation were purchased from Sigma-Aldrich (St. Louis, Mo.), unless otherwise noted, and were of ACS reagent grade purity or higher.
HEK (human embryonic kidney) 293 cells were stably transfected with hERG cDNA.
For the patch clamp experiment, onset and steady state inhibition of hERG potassium current was measured using a pulse pattern with fixed amplitudes (depolarization: +20 mV for 2 s; repolarization: −50 mV for 2 s) repeated at 10 s intervals from a holding potential of −80 mV. Peak tail current was measured during the 2 s step to −50 mV. A steady state was maintained for at least 30 seconds before applying compound or positive control (cisapride). Peak tail currents were measured until a new steady state was achieved.
Data acquisition and analyses were performed using the suite of pCLAMP® (ver. 8.2) programs (MDS Analytical Technologies, Sunnyvale, Calif.). Steady state was defined by the limiting constant rate of change with time (linear time dependence). The steady state before and after each compound application was used to calculate the percentage of current inhibited at each concentration. Concentration-response data were fit to an equation of the following form: % Inhibition={1−1/[1+([Test]/IC50)N]}*100
where [Test] was the compound concentration, IC50 was the compound concentration at half-maximal inhibition, N was the Hill coefficient, and % Inhibition was the percentage of current inhibited at each compound concentration. Nonlinear least squares fits were solved with the Solver add-in for Excel 2003 (Microsoft, WA) and the IC50 was calculated.

[4] = test system: IL-17A production; experiment: Human Whole Blood Assay (Assay 3); type: cell-based; conditions: IL-17A secretion, CytoStim, 48 h, 50% blood/media
Experimental: Human Whole Blood Assay (Assay 3)
Compounds of the invention were tested in the human whole blood assay to measure their effects on IL-17A production as determined by cytokine secretion into 50% blood/media supernatant. Mixtures of sodium heparinized whole blood (isolated from healthy human donors) and the T cell activator CytoStim, in the presence or absence of compound, were plated in sterilized, tissue culture-treated 24-well plates. Specifically, the mixtures in each well were as follows: (1) 500 μL of whole blood, (2) 250 μL of compound diluted into RPMI-1640 media containing 10% HyClone™ FCS (Thermo Fisher Scientific, Waltham, Mass.), Gibco® Pen/Strep and Gibco® NEAA (Life Technologies, Grand Island, N.Y.), and (3) 250 μL of CytoStim (Miltenyi Biotech, Germany) diluted to a final concentration of 10 μL/mL in complete cell culture medium.
IL-17A cytokine expression was determined using 25 μL of the transferred supernatant diluted with 25 μL of Diluent 43 from the Human IL-17A V-PLEX™ kit (cat. # K151RFD-4, Meso Scale Discovery, Rockville, Md.). The assay was performed according to the manufacturer's instructions using included reagents. The IL-17A V-PLEX™ plates were read using the Meso Scale Discovery Imager (Model 1200).

[5] = cell-free competition with 25-hydroxy [26,27-3H]-cholesterol

| Ki [1, 5] [nM] | pIC50 [2] | Structure (SMILES) | also measured |
| --- | --- | --- | --- |
| < 100 | > 7.00 | CCS(=O)(=O)c1ccc([C@H](CO)NC(=O)c2cnc3c(c2)CN(C[C@@H]2CC[C@@H](C(F)(F)F)CO2)[C@H]3C(C)C)cc1 [Compound 14] |  |
| < 100 | < 6.00 | CCS(=O)(=O)c1ccc([C@H](CO)NC(=O)c2cnc3c(c2)CN(C[C@@H]2CC[C@H](C(F)(F)F)CO2)[C@H]3C(C)C)cc1 (single isomer, unassigned) [Compound 18] |  |
| < 100 |  | CCS(=O)(=O)c1ccc([C@H](CO)NC(=O)c2cnc3c(c2)CN(C[C@H]2CC[C@H](C(F)(F)F)CC2)[C@H]3C2CCOCC2)cc1 [Compound 31] |  |
| < 100 |  | CCS(=O)(=O)c1ccc([C@H](CO)NC(=O)c2cnc3c(c2)CN(CC(F)(F)F)[C@H]3Cc2ccccc2)cc1 [Compound 22] |  |
| < 100 |  | CCS(=O)(=O)c1ccc([C@@H](CO)NC(=O)c2cnc3c(c2)CN(C[C@H]2CC[C@H](C(F)(F)F)CC2)[C@H]3C(C)C)cc1 [Compound 47] |  |
| < 100 |  | CCS(=O)(=O)c1ccc(C(C)(CO)NC(=O)c2cnc3c(c2)CN(C[C@H]2CC[C@H](C(F)(F)F)CC2)[C@H]3C(C)C)cc1 (some centres unmarked) [Compound 7] |  |
| < 100 | < 6.00 | CCS(=O)(=O)c1ccc([C@H](CO)NC(=O)c2cnc3c(c2)CN(C[C@H]2CC[C@@H](C(F)(F)F)CO2)[C@H]3C(C)C)cc1 (single isomer, unassigned) [Compound 21] |  |
| < 100 |  | CCS(=O)(=O)c1ccc([C@H](CO)NC(=O)c2cnc3c(c2)CN(C[C@H]2CC[C@H](C(F)(F)F)CC2)[C@H]3C)cc1 [Compound 26] |  |
| > 1000 |  | CCS(=O)(=O)c1ccc([C@H](CO)NC(=O)c2cnc3c(c2)CN(C[C@H]2CC[C@H](C(F)(F)F)CC2)[C@@H]3C)cc1 [Compound 28] |  |
| < 100 | > 7.00 | CC[C@H]1c2ncc(C(=O)N[C@@H](CO)c3ccc(S(=O)(=O)CC)cc3)cc2CN1C[C@H]1CC[C@H](C(F)(F)F)OC1 (single isomer, unassigned) [Compound 10] |  |
| < 100 | > 7.00 | CCS(=O)(=O)c1ccc([C@H](CO)NC(=O)c2cnc3c(c2)CN(C[C@@H]2CC[C@@H](C(F)(F)F)OC2)[C@H]3C(C)C)cc1 [Compound 2] |  |
| 100 to 1000 |  | CCS(=O)(=O)c1ccc([C@H](CO)NC(=O)c2cnc3c(c2)CN(C)[C@@H]3Cc2ccccc2)cc1 (single isomer, unassigned) [Compound 34] |  |
| < 100 | > 7.00 | CC[C@H]1c2ncc(C(=O)N[C@@H](CO)c3ccc(S(=O)(=O)CC)cc3)cc2CN1C[C@@H]1CC[C@@H](C(F)(F)F)OC1 (single isomer, unassigned) [Compound 11] |  |
| < 100 |  | CCS(=O)(=O)c1ccc([C@H](CO)NC(=O)c2cnc3c(c2)CN(C[C@H]2CC[C@H](C(F)(F)F)CC2)[C@H]3Cc2ccccc2)cc1 [Compound 37] |  |
| < 100 |  | CCO[C@H]1CC[C@H](CN2Cc3cc(C(=O)N[C@@H](CO)c4ccc(S(=O)(=O)CC)cc4)cnc3[C@@H]2C(C)C)CC1 [Compound 43] |  |
| < 100 | > 7.00 | CCS(=O)(=O)c1ccc([C@H](CO)NC(=O)c2cnc3c(c2)CN(C[C@H]2CC[C@H](C(F)(F)F)CO2)[C@H]3C(C)C)cc1 (single isomer, unassigned) [Compound 15] |  |
| < 100 |  | CCS(=O)(=O)c1ccc([C@H](CO)NC(=O)c2cnc3c(c2)CN(C[C@H]2CC[C@H](C(F)(F)F)CC2)C3C(F)(F)F)cc1 (some centres unmarked) [Compound 23] |  |

Continued, compound first:

| Structure (SMILES) | Ki [1, 5] [nM] | pIC50 [2] | also measured |
| --- | --- | --- | --- |
| CCS(=O)(=O)c1ccc([C@H](CO)NC(=O)c2cnc3c(c2)CN(C[C@H]2CC[C@H](C(F)(F)F)CC2)[C@H]3C(C)C)cc1 [Compound 46, (S)—N—((R)-1-(4-(ethylsulfonyl)phenyl)-2-hydroxyethyl)-7-isopropyl-6-((trans-4-(trifluoromethyl)cyclohexyl)methyl)-6,7-dihydro-5H-pyrrolo[3,4-b]pyridine-3-carboxamide] | < 100 |  | inhibition at 3 µM [3]: 44.3% |
| CCS(=O)(=O)c1ccc([C@H](NC(=O)c2cnc3c(c2)CN(C[C@H]2CC[C@H](C(F)(F)F)CC2)[C@H]3C(C)C)[C@H](C)O)cc1 (single isomer, unassigned) [Compound 39] | < 100 | > 7.00 | inhibition at 3 µM [3]: 32.7% |
| CCS(=O)(=O)c1ccc([C@H](CO)NC(=O)c2cnc3c(c2)CN(C[C@H]2CC[C@H](C(F)(F)F)OC2)[C@H]3C(C)C)nc1 [Compound 4] |  | > 7.00 | Ki [1]: < 100 nM; IC50 [4]: < 100 nM |
| CCS(=O)(=O)c1ccc([C@H](CO)NC(=O)c2cnc3c(c2)CN(C[C@@H]2CC[C@@H](C(F)(F)F)OC2)[C@H]3C(C)C)nc1 [Compound 1] | < 100 | > 7.00 | IC50 [4]: < 100 nM |
| CC[C@H]1c2ncc(C(=O)N[C@@H](CO)c3ccc(S(=O)(=O)CC)cn3)cc2CN1C[C@H]1CC[C@H](C(F)(F)F)CC1 [Compound 33] |  |  | inhibition at 3 µM [3]: 29.1% |
| CC[C@H]1c2ncc(C(=O)N[C@@H](CO)c3ccc(S(=O)(=O)CC)cc3)cc2CN1C[C@H]1CC[C@H](C(F)(F)F)CC1 [Compound 41, (S)-7-ethyl-N—((R)-1-(4-(ethylsulfonyl)phenyl)-2-hydroxyethyl)-6-((trans-4-(trifluoromethyl)cyclohexyl)methyl)-6,7-dihydro-5H-pyrrolo[3,4-b]pyridine-3-carboxamide] |  |  | inhibition at 3 µM [3]: 7.7% |
| CCS(=O)(=O)c1ccc([C@H](CO)NC(=O)c2cnc3c(c2)CN(C[C@H]2CC[C@H](C(F)(F)F)CC2)[C@H]3CC2CCOCC2)cc1 [Compound 27] | < 100 |  |  |
| CCS(=O)(=O)c1ccc([C@H](CO)NC(=O)c2cnc3c(c2)CN(CC(F)(F)F)[C@@H]3Cc2ccccc2)cc1 [Compound 19] | < 100 |  |  |
| CCS(=O)(=O)c1ccc([C@@H](CO)NC(=O)c2cnc3c(c2)CN(C[C@H]2CC[C@H](C(F)(F)F)CC2)[C@H]3C(C)C)nc1 [Compound 44] |  |  | inhibition at 3 µM [3]: 28.6% |
| CCS(=O)(=O)c1ccc([C@@H](NC(=O)c2cnc3c(c2)CN(C[C@H]2CC[C@H](C(F)(F)F)CC2)[C@H]3C(C)C)[C@@H](C)O)cc1 (single isomer, unassigned) [Compound 42] | < 100 | > 7.00 | inhibition at 3 µM [3]: 63.9% |
| CC[C@H]1c2ncc(C(=O)N[C@@H](CO)c3ccc(S(C)(=O)=O)cc3)cc2CN1C[C@H]1CC[C@H](C(F)(F)F)CC1 [Compound 24] | < 100 | > 7.00 |  |
| CCS(=O)(=O)c1ccc([C@@H](NC(=O)c2cnc3c(c2)CN(C[C@H]2CC[C@H](C(F)(F)F)CC2)[C@H]3C(C)C)[C@@H](C)O)cc1 [Compound 29] | 100 to 1000 |  |  |
| CCS(=O)(=O)c1ccc([C@@H](NC(=O)c2cnc3c(c2)CN(C[C@H]2CC[C@H](C(F)(F)F)CC2)[C@H]3C(C)C)[C@@H](C)O)cc1 [Compound 30] | 100 to 1000 |  |  |
